Experimental data: US4510136A (priority 1983, dated 1985)
Counter-ions that a name gives are not always drawn.

Assays:
Assay type in all cases: in vivo
Pyricularia oryzae = assay: whole plant or invertebrate; conditions: for % Control of Rice Blast: 100 ppm spray, day before inoculation; for pest or weed control at 100 ppm: Pyricularia oryzae, 168 h, read-out: % Control of Rice Blast, 100 ppm spray, day before inoculation
Phytophthora infestans = assay: whole plant or invertebrate; conditions: for % Control of Tomato Late Blight: 100 ppm spray, day before inoculation; for pest or weed control at 100 ppm: Phytophthora infestans, in Solanum lycopersicum, 168 h, read-out: % Control of Tomato Late Blight, 100 ppm spray, day before inoculation
Cercospora arachidicola = assay: Peanut early leafspot control on sprayed peanut seedlings (Example 84); conditions: 100 ppm spray, day before inoculation; for pest or weed control at 100 ppm: Mycosphaerella arachidis, 360 h, read-out: % Control Peanut Easly Leafspot
Protocol: These suspensions were sprayed to the point of run-off on peanut seedlings. The following day, the plants were inoculated with a spore suspension of Cercospora arachidicola, causal agent of peanut early leafspot, and incubated in a saturated humidity chamber at 27° for 24 hours and then in a growth room for an additional 14 days, when disease ratings were made. Treated plants from successful treatments had few or no leafspots while the untreated plants had numerous leafspots.

Helminthosporium maydis = assay: Southern corn leaf blight control on sprayed corn seedlings (Example 83); conditions: 100 ppm spray, day before inoculation; for pest or weed control at 100 ppm: Bipolaris maydis, 192 h
Protocol: The compounds of the previous examples were again dissolved in acetone in an amount equal to 6% of the final volume and then suspended at a concentration of 100 ppm in purified water containing 250 ppm of the surfactant TREM 014 (polyhydric alcohol esters). These suspensions were sprayed to the point of run-off on corn seedlings. The following day, the plants were inoculated with a spore suspension of Helminthosporium maydis, causal agent of southern corn leaf blight, and incubated in a saturated humidity chamber at 20° for 24 hours and then in a growth room for an additional 7 days, when disease ratings were made. Treated plants from successful treatments had few or no lesions while the untreated plants had numerous lesions on each leaf. Phytotoxicity expressed as growth reduction was observed on some of the plants in association with disease control.

Rhizoctonia solani = assay: Rice sheath blight control on sprayed rice seedlings (Example 87); conditions: 100 ppm spray, day before inoculation; for pest or weed control at 100 ppm: Rhizoctonia solani, 168 h
Protocol: The compounds of the previous examples were again dissolved in acetone in an amount equal to 6% of the final volume and then suspended at a concentration of 100 ppm in purified water containing 250 ppm of the surfactant TREM 014 (polyhydric alcohol esters). This suspension was sprayed to the point of run-off on rice seedlings. The following day, the plants were inoculated with a mixture of bran and the mycelium of Rhizoctonia solani, causal agent of sheath blight of rice, and incubated in a growth room for 7 days. Disease ratings were then made. Treated plants from successful treatments had little sheath blight in contrast to untreated plants which were covered with sheath blight.

Erysiphe cichoracearum = assay: Cucumber powdery mildew control on sprayed cucumber seedlings (Example 80); conditions: 100 ppm spray, day before inoculation; for pest or weed control at 100 ppm: Golovinomyces cichoracearum, 168 h
Protocol: These suspensions were sprayed to the point of run-off, on cucumber seedlings. The following day, the plants were inoculated with a spore suspension of the fungus Erysiphe cichoracearum, causal agent of cucumber powdery mildew, and incubated in a growth room for 7 days. Disease ratings were then made. Treated plants from successful treatments had little or no powdery mildew in contrast to untreated plants which were covered with powdery mildew. Phytotoxicity in the form of growth reduction or hormonal effects was observed on some of the plants in association with disease control.

[1] = tested on: Puccinia recondita var. tritici; assay: Wheat leaf rust control on sprayed wheat seedlings (Example 79); conditions: 100 ppm spray, day before inoculation; for pest or weed control at 100 ppm: Puccinia recondita, 168 h
Protocol: The compounds of this invention were dissolved in acetone in an amount equal to 6% of the final volume and then suspended at a concentration of 100 ppm in purified water containing 250 ppm of the surfactant TREM 014 (polyhydric alcohol esters). These suspensions were sprayed to the point of run-off on wheat seedlings. The following day, the plants were inoculated with a spore suspension of Puccinia recondita var. tritici, causal agent of wheat leaf rust, and incubated in a saturated humidity chamber at 20° for 24 hours and then in a growth room for an additional 7 days, when disease ratings were made. Treated plants from successful treatments had few or no rust pustules while the untreated plants had numerous rust pustules on each leaf.

Venturia inaequalis = assay: Apple scab control on sprayed apple seedlings (Example 82); conditions: 100 ppm spray, day before inoculation; for pest or weed control at 100 ppm: Venturia inaequalis
Protocol: These suspensions were sprayed to the point of run-off on apple seedlings. The following day, the plants were inoculated with a spore suspension of the fungus Venturia inaequalis, causal agent of apple scab, and incubated in a saturated humidity chamber at 20° for 24 hours and then in a growth room for an additional 10-12 days. Treated plants from successful treatments had fewer apple scab lesions when compared to untreated plants which were covered with scab lesions. Phytotoxicity expressed as growth reduction was observed on some of the plants in association with disease control.

| Compound | % Control of Rice Blast (Pyricularia oryzae) [%] | % Control of Tomato Late Blight (Phytophthora infestans) [%] | % Control Peanut Easly Leafspot (Cercospora arachidicola) [%] | % Control of Southern Corn Leaf Blight (Helminthosporium maydis) [%] | % Control of Rice Sheath Blight (Rhizoctonia solani) [%] | % Control Cucumber Powdery Mildew (Erysiphe cichoracearum) [%] | % Control Wheat Rust [1] [%] | % Control Apple Scab (Venturia inaequalis) [%] | pest or weed control at 100 ppm (Phytophthora infestans) [%] | pest or weed control at 100 ppm (Cercospora arachidicola) [%] | pest or weed control at 100 ppm (Helminthosporium maydis) [%] | pest or weed control at 100 ppm (Rhizoctonia solani) [%] | pest or weed control at 100 ppm (Venturia inaequalis) [%] | pest or weed control at 100 ppm (Erysiphe cichoracearum) [%] | pest or weed control at 100 ppm [1] [%] | pest or weed control at 100 ppm (Pyricularia oryzae) [%] |
| --- | --- | --- | --- | --- | --- | --- | --- | --- | --- | --- | --- | --- | --- | --- | --- | --- |
| 2:1 complex of [bis(4-Fluorophenyl)]methyl(1H-1,2,4-triazol-1-ylmethyl)silane and Curpic Chloride | 100 | 40 | 100 | 0 | 0 | 100 | 100 | – | – | – | – | – | – | – | – | – |
| C[Si](C)(Cn1cncn1)c1ccc(-c2ccccc2)cc1.[Cl][Cu] [1:1 complex of (1,1'-Biphenyl-4-yl)dimethyl(1H-1,2,4-triazol-1-ylmethyl)silane and Cuprous Chloride] | 100 | 100 | 100 | 100 | 90 | 100 | 0 | 100 | – | – | – | – | – | – | – | – |
| C[Si](Cn1cncn1)(c1ccc(Cl)cc1)c1ccccc1Cl (stereo not drawn) [2-Chlorophenyl(4-chlorophenyl)methyl(1H-1,2,4-triazol-1-ylmethyl)silane] | – | – | – | – | – | – | – | – | 0 | 90 | 60 | 70 | 90 | 100 | 100 | – |
| C[Si](Cn1cncn1)(c1ccccc1)c1ccccc1Cl (stereo not drawn) [2-Chlorophenyl(methyl)phenyl(1H-1,2,4-triazol-1-ylmethyl)silane] | – | – | – | – | – | – | – | – | 0 | 100 | 100 | 90 | 90 | 100 | 80 | 100 |
| C[Si](Cn1cncn1)(c1ccccc1)c1ccc(Br)cc1 (stereo not drawn) [4-Bromophenyl(methyl)phenyl(1H-1,2,4-triazol-1-ylmethyl)silane] | – | – | – | – | – | – | – | – | 0 | 100 | 80 | 90 | 100 | 100 | 0 | 80 |
| C[Si](C)(Cn1cncn1)c1ccccc1-c1ccccc1 [(1,1'-Biphenyl-2-yl)dimethyl(1H-1,2,4-triazol-1-ylmethyl)silane] | – | – | – | – | – | – | – | – | 50 | 100 | 90 | 0 | 60 | 90 | 0 | 90 |
| C[Si](C)(Cn1cncn1)c1cccc(-c2ccccc2)c1 [(1,1'-Biphenyl-3-yl)dimethyl(1H-1,2,4-triazol-1-ylmethyl)silane] | – | – | – | – | – | – | – | – | 0 | 90 | 100 | 0 | 50 | 0 | 80 | 0 |
| C[Si](Cn1cncn1)(c1ccc(F)cc1)c1ccc(-c2ccccc2)cc1 (stereo not drawn) [(1,1'-Biphenyl-4-yl)(4-fluorophenyl)methyl(1H-1,2,4-triazol-1-ylmethyl)silane] | – | – | – | – | – | – | – | – | 0 | 100 | 80 | 0 | 100 | 100 | 100 | – |
| C[Si](C)(Cn1cncn1)c1ccc(-c2ccccc2)cc1.[Cl][Cu][Cl] [(1,1'-Biphenyl-4-yl)dimethyl(1H-1,2,4-triazol-1-ylmethyl)silane, 1:1 complex with cupric chloride] | 100 | 90 | 100 | 80 | 0 | 100 | 100 | 100 | – | – | – | – | – | – | – | – |
| C[Si](C)(Cn1cncn1)c1ccc(-c2ccccc2)cc1.O=S(=O)([O-])[O-].[Mn+2] [(1,1'-Biphenyl-4-yl)dimethyl(1H-1,2,4-triazol-1-ylmethyl)silane, 1:1 complex with manganous sulfate] | 0 | 0 | 100 | 100 | 0 | 90 | 90 | 100 | – | – | – | – | – | – | – | – |
| C[Si](C)(Cn1cncn1)c1ccc(-c2ccccc2)cc1 [(1,1'-Biphenyl-4-yl)dimethyl(1H--1,2,4-triazol-1-ylmethyl)si] [4-Dodecylbenzenesulfonate Salt of (1,1'-Biphenyl-4-yl)dimethyl(1H-1,2,4-triazol-1-ylmethyl)silane] | – | – | – | 100 | – | – | – | – | – | – | – | – | – | – | – | – |
| Cc1ncnn1C[Si](C)(C)c1ccc(-c2ccccc2)cc1 [(1,1'-Biphenyl-4-yl)dimethyl(5-methyl-1H-1,2,4-triazol-1-ylmethyl)silane] | – | – | – | – | – | – | – | – | 80 | 100 | 80 | 0 | 100 | 100 | 100 | 0 |
| CC(C)(C)O[Si](Cn1cncn1)(c1ccc(F)cc1)c1ccc(F)cc1 [(1,1-Dimethylethoxy)[bis(4-fluorophenyl)](1H-1,2,4-triazol-1-ylmethyl)silane] | – | – | – | – | – | – | – | – | – | – | 0 | – | – | 100 | – | – |
| CC(C)O[Si](C)(Cn1cncn1)c1ccc(F)cc1 (stereo not drawn) [(4-Fluorophenyl)methyl(2-propoxy)(1H-1,2,4-triazol-1-ylmethyl)silane] | – | – | – | – | – | – | – | – | – | – | 0 | – | – | 100 | – | – |
| CC(C)O[Si](Cn1cncn1)(OC(C)C)c1ccccc1 [Phenylbis(2-propoxy)(1H-1,2,4-triazol-1-ylmethyl)silane] | – | – | – | – | – | – | – | – | 0 | 0 | 0 | 0 | 0 | 100 | 0 | – |
| C[Si](Cn1cncn1)(c1ccc(F)cc1)c1ccc(F)cc1.[Cl][Cu] [[bis(4-Fluorophenyl)]methyl(1H-1,2,4-triazol-1-ylmethyl)silane, 1:1 complex with cuprous chloride] | 90 | 0 | 100 | 0 | 90 | 100 | 90 | – | – | – | – | – | – | – | – | – |
| CC(n1cncn1)[Si](C)(c1ccc(F)cc1)c1ccc(F)cc1 (stereo not drawn) [bis(4-Fluorophenyl)methyl[1-(1H-1,2,4-triazol-1-yl)ethyl]silane] | – | – | – | – | – | – | – | – | 0 | 100 | – | 80 | 100 | 100 | 100 | 0 |
